Laboratory results from US8383637B2, “2-amino-quinazoline derivatives useful as inhibitors of β-secretase (BACE)” (Jansssen Pharmaceutica N.V., priority 2004, dated 2013).
Where “and” joins values, the source holds several entries; their conditions need not be identical. Equal values may be shown once.

Tests used:
Type in all cases: biochemical
β-secretase(BACE) [1] = molecular target: T1, β-secretase(BACE) (Homo sapiens, UniProt P56817); assay: BACE Assay-2 (FS1 substrate, IC50 and Ki); conditions: procedure of Example 159, FS1 substrate; for Ki: read-out: Ki μM (159)
T1 construct: purchased Panvera
T1 sequence (P56817 46-501): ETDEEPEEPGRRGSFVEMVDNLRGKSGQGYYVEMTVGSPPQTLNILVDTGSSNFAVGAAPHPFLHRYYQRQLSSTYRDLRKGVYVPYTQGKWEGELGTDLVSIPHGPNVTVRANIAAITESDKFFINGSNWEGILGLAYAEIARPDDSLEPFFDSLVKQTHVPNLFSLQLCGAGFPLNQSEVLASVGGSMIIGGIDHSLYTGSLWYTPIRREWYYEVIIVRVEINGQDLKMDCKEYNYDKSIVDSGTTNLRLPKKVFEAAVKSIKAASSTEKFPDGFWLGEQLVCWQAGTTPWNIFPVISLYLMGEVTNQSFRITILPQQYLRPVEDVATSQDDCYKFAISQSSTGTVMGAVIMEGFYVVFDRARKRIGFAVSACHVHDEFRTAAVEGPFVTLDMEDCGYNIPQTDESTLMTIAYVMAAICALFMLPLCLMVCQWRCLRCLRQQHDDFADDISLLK

β-secretase(BACE) [2] = molecular target: T1, β-secretase(BACE); assay: BACE % Inhibition Assay ((Aedens)-[…]-(Dabcyl K-amide) substrate); conditions: % error ±10%; for inhibition at 3 µM / inhibition at 10 µM: read-out: % Inhibition; for inhibition at 10 µM: 10 μM test compound; for inhibition at 0.3 µM: 0.3 μM test compound; for inhibition at 1 µM: 1 μM test compound
Method: The substrate stock solution was prepared in DMSO as a 10 mg/mL solution. The substrate working solution was prepared by diluting the 10 mg/mL stock solution with substrate assay buffer to a final concentration of 300 μg/mL. The β-secretase (BACE) working solution was prepared by diluting a 0.83 mg/mL BACE stock solution with enzyme assay buffer to a final concentration of 4 μg/mL.
Test compounds were dissolved in DMSO to 10 mM.
The screening procedure for this assay was as follows: 15 μL of BACE working solution was pipetted into each well of a 96-well plate. To each well was then pipetted 2 μL of test compound at the selected concentration. Test compound and BACE were then mixed with a pipettor and incubated for 20 min at room temperature. To each well was then added 10 μL of the substrate working solution. The plates were then incubated for 1 hour at room temperature.
The procedure for the blank was as follows. 15 μL of assay buffer was pipetted into each well to be used as a blank control. To each well was then added 2 μL of vehicle and 10 μL of substrate working solution. The plates were then incubated for 1 hour at room temperature.
The procedure for the positive control was as follows: 15 μl of BACE working solution was pipetted into each well to be used as a positive control. To each well was then pipetted 2 μL of vehicle. Vehicle and BACE were then mixed with a pipettor and incubated for 20 min at room temperature. To each well was then added 10 μL of the substrate working solution. The plates were then incubated for 1 hour at room temperature.
For test compounds, % inhibition was determined at each concentration as follows: […]

β-secretase(BACE) [3] = molecular target: T1, β-secretase(BACE); assay: BACE Assay-1 (MCA-substrate, IC50); conditions: procedure of Example 158; read-out: IC50 μM (158)
Outline: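 Human BACE (work solution 10 μg/mL) with MCA-peptide substrate (stock 2.0 mg/mL) in 0.05 M citrate buffer, pH 5.0, with PEG8000. Fluorescence read at T0 and T60; compounds tested at multiple concentrations and IC50 calculated from these readings.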

β-secretase(BACE) [4] = molecular target: T1, β-secretase(BACE); assay: BACE FS1% Inhibition Assay; conditions: FS1 substrate; for inhibition at 0.3 µM: 0.3 μM test compound; for inhibition at 1 µM: 1 μM test compound; for inhibition at 3 µM: 3 μM test compound
Outline: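 Human BACE (4 μg/mL working solution) preincubated 20 min at room temperature with compound, then FS1 substrate (300 μg/mL working solution) added and incubated 1 h at room temperature. Percent inhibition calculated at each compound concentration against blank and vehicle controls.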

human BACE-1 = human BACE-1 (Homo sapiens, UniProt P56817); assay: BACE Assay (CEREP); conditions: recombinant enzyme, 60 min at 37° C., pH 4.5; for inhibition at 0.3 µM: test compound 0.3 μM
human BACE-1, sequence (P56817 46-501): as above
Method: The test compound, reference compound or water (control) were added to a buffer containing 0.09 M sodium acetate (pH 4.5) and 0.25 μg BACE-1. Compound interference with the fluorimetric detection method due to autofluorescence was then checked by measurements at the wavelengths defined to evaluate the enzyme activity. […] For control basal measurement, the substrate was omitted from the reaction mixture. […] The standard inhibitory reference compound was OM99-2, which was tested in each experiment at several concentrations to obtain an inhibition curve from which its IC50 value was calculated.

[5] = read-out: % Inhibition (FS) 0.3 μM
[6] = read-out: % Inhibition (FS) 1 μM
[7] = read-out: % Inhibition (FS) 3 μM

Structure (SMILES) | IC50 (β-secretase(BACE) [1]) | Ki (β-secretase(BACE) [1]) | inhibition at 3 µM (β-secretase(BACE) [2]; 3 μM test compound) | inhibition at 10 µM (β-secretase(BACE) [2]) | IC50 (β-secretase(BACE) [3]) | also measured
CN(Cc1cccc2ccccc12)C(=O)CCCCN1Cc2cc(C(=O)c3ccccc3)ccc2N=C1N [Compound 51] | 13 µM | 1.2 µM | < 30% | 56% | 2.2 µM | 
CCCN1Cc2cc(Oc3cccc(NC4CCCCC4)c3)ccc2N=C1N [Compound 53] | 6.8 µM | 0.82 µM | 34% | 82% | 1 µM | 
CCCN1Cc2cc(Oc3cccc(NCC4CCCCC4)c3)ccc2N=C1N [Compound 55] | 2.4 µM | 0.79 µM | 62% | 95% | 0.28 µM | 
CCCN1Cc2cc(Oc3cccc(NC(=O)OCc4ccccc4)c3)ccc2N=C1N [Compound 67] | 3.9 µM | 0.81 µM | 44% | 71% | 0.68 µM | 
CN(C(=O)CCC(CCC(=O)N(C)C1CCCCC1)N1Cc2cc(Oc3ccccc3)ccc2N=C1N)C1CCCCC1 [Compound 84, 4-(2-Amino-6-phenoxy-4H-quinazolin-3-yl)-heptanedioic acid bis-(cyclohexyl-methyl-amide)] | 3.1 µM | 0.76 µM | 38% | 63% | 0.47 µM | 
NC1=Nc2ccc(Oc3ccccc3)cc2CN1Cc1cccc(C(=O)N(C2CCCCC2)C2CCCCC2)c1 [Compound 98] | 2.3 µM | 1.1 µM | 76% | 99% | 0.2 µM | inhibition at 0.3 µM (β-secretase(BACE) [4]; [5]): 49%; inhibition at 1 µM (β-secretase(BACE) [4]; [6]): 93%; inhibition at 3 µM (β-secretase(BACE) [4]; [7]): 114%
NC1=Nc2ccc(Oc3ccccc3)cc2CN1CCNC(=O)C1CCCCC1 [Compound 111, Cyclohexanecarboxylic acid [2-(2-amino-6-phenoxy-4H-quinazolin-3-yl)-ethyl]-amide] |  | 0.082 µM and 0.067 µM |  | 94% | 0.1 µM | inhibition at 0.3 µM (β-secretase(BACE) [2]): 63%; inhibition at 1 µM (β-secretase(BACE) [2]): 96%; % Inhibition (β-secretase(BACE) [2]; 3 μM test compound, 3 µM): 84% and 115%
NC1=Nc2ccc(Oc3ccccc3)cc2CN1CCNC(=O)C1CCCC1 [Compound 112] |  | 0.59 µM | 88% | 92% | 0.12 µM | 
NC1=Nc2ccc(Oc3ccccc3)cc2CN1CCNC(=O)c1ccccc1 [Compound 154] |  | 0.61 µM |  |  |  | IC50 (human BACE-1): > 1000 nM; inhibition at 3 µM (β-secretase(BACE) [4]; [7]): 56%; inhibition at 10 µM (β-secretase(BACE) [4]; 10 μM test compound, read-out: % Inhibition (FS) 10 μM): 79%
NC1=Nc2ccc(Oc3ccccc3)cc2CN1[C@@H](CCC(=O)N(Cc1ncc[nH]1)C1CCCCC1)C1CCCCC1 [Compound 788] |  |  |  |  |  | IC50 (human BACE-1): 160 nM; inhibition at 0.3 µM (human BACE-1): 97%; inhibition at 0.3 µM (β-secretase(BACE) [4]; read-out: % Inhibition (FS)): 110%; inhibition at 1 µM (β-secretase(BACE) [4]; read-out: % Inhibition (FS)): 114%; inhibition at 3 µM (β-secretase(BACE) [4]; read-out: % Inhibition (FS)): 118%
NC1=Nc2ccc(Oc3ccccc3)cc2CN1[C@@H](CCC(=O)N(Cc1ccncc1)C1CCCCC1)C1CCCCC1 [Compound 789] |  |  |  |  |  | IC50 (human BACE-1): 78 nM; inhibition at 0.3 µM (human BACE-1): 94%; inhibition at 0.3 µM (β-secretase(BACE) [4]; read-out: % Inhibition (FS)): 80%; inhibition at 1 µM (β-secretase(BACE) [4]; read-out: % Inhibition (FS)): 99%; inhibition at 3 µM (β-secretase(BACE) [4]; read-out: % Inhibition (FS)): 106%
NC1=Nc2ccc(Oc3ccccc3)cc2CN1[C@@H](CCC(=O)N(Cc1nc[nH]n1)C1CCCCC1)C1CCCCC1 [Compound 790] |  |  |  |  |  | IC50 (human BACE-1): 93 nM; inhibition at 0.3 µM (human BACE-1): 98%
NC1=Nc2ccc(Oc3ccccc3)cc2CN1[C@@H](CCC(=O)N1C2CCCCC2C[C@H]1C(=O)O)C1CCCCC1 (stereo partly drawn) [Compound 795, 1-[4-(2-Amino-6-phenoxy-4H-quinazolin-3-yl)-4S-cyclohexyl-butyryl]-octahydro-indole-2S-carboxylic acid] |  |  |  |  |  | IC50 (human BACE-1): 150 nM; inhibition at 0.3 µM (human BACE-1): 98%
NC1=Nc2ccc(Oc3ccccc3)cc2CN1[C@@H](CCC(=O)N(Cc1cnc[nH]1)C1CCCCC1)C1CCCCC1 [Compound 796] |  |  |  |  |  | IC50 (human BACE-1): 190 nM
CC(=O)OCC1OC(OCCN(C(=O)CCC(C2CCCCC2)N2Cc3cc(Oc4ccccc4)ccc3N=C2N)C2CCCCC2)C(OC(C)=O)C(OC(C)=O)C1OC(C)=O (stereo not drawn) [Compound 797] |  |  |  |  |  | IC50 (human BACE-1): 120 nM; inhibition at 0.3 µM (human BACE-1): 95%
NC1=Nc2ccc(Oc3ccccc3)cc2CN1[C@@H](CCC(=O)N(CCO[C@@H]1O[C@H](CO)[C@@H](O)[C@H](O)[C@H]1O)C1CCCCC1)C1CCCCC1 [Compound 798, 4-(2-Amino-6-phenoxy-4H-quinazolin-3-yl)-4S,N-dicyclohexyl-N-[2R-(3R,4S,5S-trihydroxy-6R-hydroxymethyl-tetrahydro-pyran-2-yloxy)-ethyl]-butyramide] |  |  |  |  |  | IC50 (human BACE-1): 74 nM; inhibition at 0.3 µM (human BACE-1): 95%

Continued, in another order:

IC50 (β-secretase(BACE) [1]) | Ki (β-secretase(BACE) [1]) | inhibition at 3 µM (β-secretase(BACE) [2]; 3 μM test compound) | inhibition at 10 µM (β-secretase(BACE) [2]) | IC50 (β-secretase(BACE) [3]) | Structure (SMILES) | also measured
11 µM | 0.53 µM | < 30% | 34% | 1 µM | CN(CCc1ccccc1)C(=O)CCCCN1Cc2cc(C(=O)c3ccccc3)ccc2N=C1N [Compound 50] | 
0.44 µM | 0.23 µM | 75% | 87% | 0.2 µM | CCCN1Cc2cc(Oc3cccc(NS(=O)(=O)c4ccccc4)c3)ccc2N=C1N [Compound 61] | 
0.94 µM | 0.12 µM | 61% | 80% | 0.11 µM | CC(C)(C)OC(=O)NCCN1Cc2cc(Oc3ccccc3)ccc2N=C1N [Compound 80] | 
0.954 µM | 0.076 µM | 73% | 90% | 0.32 µM | NC1=Nc2ccc(Oc3ccccc3)cc2CN1CCCNC(=O)C1CCCCC1 [Compound 108] | 
1.24 µM | 0.4 µM | 75% | 96% | 0.053 µM | CN(C(=O)c1cccc(CN2Cc3cc(Oc4cccc(NS(=O)(=O)c5ccccc5)c4)ccc3N=C2N)c1)C1CCCCC1 [Compound 110] | inhibition at 0.3 µM (β-secretase(BACE) [4]; [5]): < 30%; inhibition at 1 µM (β-secretase(BACE) [4]; [6]): 30%; inhibition at 3 µM (β-secretase(BACE) [4]; [7]): 84%
 | 0.19 µM | 103% |  | 0.25 µM | CCCC(CNC(=O)OC(C)(C)C)N1Cc2cc(Oc3ccccc3)ccc2N=C1N (stereo not drawn) [Compound 318] | inhibition at 0.3 µM (β-secretase(BACE) [2]): 32%; inhibition at 1 µM (β-secretase(BACE) [2]): 70%
 | 0.074 µM | 120% |  | 0.053 µM | NC1=Nc2ccc(Oc3ccccc3)cc2CN1C(CNC(=O)c1ccccc1)C1CCCCC1 (stereo not drawn) [Compound 319] | inhibition at 0.3 µM (β-secretase(BACE) [2]): 61%; inhibition at 1 µM (β-secretase(BACE) [2]): 95%
 | 0.19 µM | 119% |  | 0.082 µM | NC1=Nc2ccc(Oc3ccccc3)cc2CN1C(CNC(=O)C1CCCCC1)c1ccccc1 (stereo not drawn) [Compound 342] | inhibition at 0.3 µM (β-secretase(BACE) [2]): 50%; inhibition at 1 µM (β-secretase(BACE) [2]): 93%
 | 0.065 µM | 118% |  | 0.041 µM | CCCC(CNC(=O)C1CCCCC1)N1Cc2cc(Oc3ccccc3)ccc2N=C1N (stereo not drawn) [Compound 343] | inhibition at 0.3 µM (β-secretase(BACE) [2]): 81%; inhibition at 1 µM (β-secretase(BACE) [2]): 101%
 | 0.1 µM | 115% |  | 0.054 µM | NC1=Nc2ccc(Oc3ccccc3)cc2CN1C(CCNC(=O)C1CCCCC1)C1CCCCC1 (stereo not drawn) [Compound 391] | inhibition at 0.3 µM (β-secretase(BACE) [2]): 35%; inhibition at 1 µM (β-secretase(BACE) [2]): 93%
 | 0.16 µM | 120% |  | 0.093 µM | NC1=Nc2ccc(Oc3ccccc3)cc2CN1C(CCNC(=O)C1CCCC1)C1CCCCC1 (stereo not drawn) [Compound 392] | inhibition at 0.3 µM (β-secretase(BACE) [2]): 75%; inhibition at 1 µM (β-secretase(BACE) [2]): 116%
 | 0.29 µM | 113% |  | 0.15 µM | NC1=Nc2ccc(Oc3ccccc3)cc2CN1C(CCNC(=O)CC1CCCC1)C1CCCCC1 (stereo not drawn) [Compound 393] | inhibition at 0.3 µM (β-secretase(BACE) [2]): < 30%; inhibition at 1 µM (β-secretase(BACE) [2]): 52%
